System: Acinetobacter baumannii strains
Experiment: Antibiotic susceptibility test (CLSI disk diffusion test method, read per CLSI 2016); note: key: ‘S’ means susceptible; ‘I’ means intermediate; ‘R’ means resistant
Format: cell-based

CC(C)(O/N=C(\C(=O)N[C@@H]1C(=O)N2C(C(=O)[O-])=C(C[n+]3ccccc3)CS[C@H]12)c1csc(N)n1)C(=O)O [Ceftazidime, ceftazidime]
R: antibiotic susceptibility class (host strain YMC14/01/C29) | antibiotic susceptibility class (host strain YMC14/01/IP122) | antibiotic susceptibility class (host strain YMC14/01/L8) | antibiotic susceptibility class (host strain YMC14/01/P31) | antibiotic susceptibility class (host strain YMC14/01/P117) | antibiotic susceptibility class (host strain YMC14/01/P224) | antibiotic susceptibility class (host strain YMC14/01/P727) | antibiotic susceptibility class (host strain YMC14/01/P728) | antibiotic susceptibility class (host strain YMC14/01/R130) | antibiotic susceptibility class (host strain YMC14/01/R160) | antibiotic susceptibility class (host strain YMC14/01/R198) | antibiotic susceptibility class (host strain YMC14/01/R257) | antibiotic susceptibility class (host strain YMC14/01/R270) | antibiotic susceptibility class (host strain YMC14/01/R324) | antibiotic susceptibility class (host strain YMC14/01/R443) | antibiotic susceptibility class (host strain YMC14/01/R451) | antibiotic susceptibility class (host strain YMC14/01/R560) | antibiotic susceptibility class (host strain YMC14/01/R671) | antibiotic susceptibility class (host strain YMC14/01/R732) | antibiotic susceptibility class (host strain YMC14/01/R767) | antibiotic susceptibility class (host strain YMC14/01/R904) | antibiotic susceptibility class (host strain YMC14/01/R905) | antibiotic susceptibility class (host strain YMC14/01/R921) | antibiotic susceptibility class (host strain YMC14/01/R941) | antibiotic susceptibility class (host strain YMC14/01/R958) | antibiotic susceptibility class (host strain YMC14/01/R1006) | antibiotic susceptibility class (host strain YMC14/01/R1199) | antibiotic susceptibility class (host strain YMC14/01/R1659) | antibiotic susceptibility class (host strain YMC14/01/R1722) | antibiotic susceptibility class (host strain YMC14/01/R1752) | antibiotic susceptibility class (host strain YMC14/01/R2429) | antibiotic susceptibility class (host strain YMC14/01/R2572) | antibiotic susceptibility class (host strain YMC14/01/R2855) | antibiotic susceptibility class (host strain YMC14/01/R2945) | antibiotic susceptibility class (host strain YMC14/01/R3007) | antibiotic susceptibility class (host strain YMC14/01/R3129) | antibiotic susceptibility class (host strain YMC14/01/R3317) | antibiotic susceptibility class (host strain YMC14/01/R3474) | antibiotic susceptibility class (host strain YMC14/01/R3574) | antibiotic susceptibility class (host strain YMC14/01/U313) | antibiotic susceptibility class (host strain YMC14/01/U318) | antibiotic susceptibility class (host strain YMC14/02/L18) | antibiotic susceptibility class (host strain YMC14/02/P47) | antibiotic susceptibility class (host strain YMC14/02/R1860) | antibiotic susceptibility class (host strain YMC14/02/R2417) | antibiotic susceptibility class (host strain YMC14/02/R2599) | antibiotic susceptibility class (host strain YMC14/02/R2668) | antibiotic susceptibility class (host strain YMC14/02/R2758) | antibiotic susceptibility class (host strain YMC14/02/R2781) | antibiotic susceptibility class (host strain YMC14/02/R3106) | antibiotic susceptibility class (host strain YMC14/02/R3419) | antibiotic susceptibility class (host strain YMC14/02/U1607) | antibiotic susceptibility class (host strain YMC14/03/L9) | antibiotic susceptibility class (host strain YMC14/03/P471) | antibiotic susceptibility class (host strain YMC14/03/R122) | antibiotic susceptibility class (host strain YMC14/03/R217) | antibiotic susceptibility class (host strain YMC14/03/R380) | antibiotic susceptibility class (host strain YMC14/03/R618) | antibiotic susceptibility class (host strain YMC14/03/R2144) | antibiotic susceptibility class (host strain YMC14/03/U4616) | antibiotic susceptibility class (host strain YMC14/04/R1078) | antibiotic susceptibility class (host strain YMC14/04/R1080) | antibiotic susceptibility S/I/R (host strain YMC14/06/R2359) | susceptibility category (S/I/R) (host strain YMC14/06/R2359) | antibiotic susceptibility S/I/R (host strain YMC14/08/R1169) | susceptibility category (S/I/R) (host strain YMC14/08/R1169) | antibiotic susceptibility S/I/R (host strain YMC14/08/T90) | susceptibility category (S/I/R) (host strain YMC14/08/T90) | antibiotic susceptibility S/I/R (host strain YMC15/02/R436) | susceptibility category (S/I/R) (host strain YMC15/02/R436) | antibiotic susceptibility S/I/R (host strain YMC15/02/T28) | susceptibility category (S/I/R) (host strain YMC15/02/T28) | antibiotic susceptibility S/I/R (host strain YMC15/03/R1604) | susceptibility category (S/I/R) (host strain YMC15/03/R1604) | antibiotic susceptibility S/I/R (host strain YMC15/09/R1869) | susceptibility category (S/I/R) (host strain YMC15/09/R1869) | antibiotic susceptibility S/I/R (host strain YMC16/01/P11) | susceptibility category (S/I/R) (host strain YMC16/01/P11) | antibiotic susceptibility S/I/R (host strain YMC16/01/R123) | susceptibility category (S/I/R) (host strain YMC16/01/R123) | antibiotic susceptibility S/I/R (host strain YMC16/01/R198) | susceptibility category (S/I/R) (host strain YMC16/01/R198) | antibiotic susceptibility S/I/R (host strain YMC16/01/R353) | susceptibility category (S/I/R) (host strain YMC16/01/R353) | antibiotic susceptibility S/I/R (host strain YMC16/01/R380) | susceptibility category (S/I/R) (host strain YMC16/01/R380) | antibiotic susceptibility S/I/R (host strain YMC16/01/R397) | susceptibility category (S/I/R) (host strain YMC16/01/R397) | antibiotic susceptibility S/I/R (host strain YMC16/01/R405) | susceptibility category (S/I/R) (host strain YMC16/01/R405) | antibiotic susceptibility S/I/R (host strain YMC16/03/R4461) | susceptibility category (S/I/R) (host strain YMC16/03/R4461) | antibiotic susceptibility S/I/R (host strain YMC16/05/R2210) | susceptibility category (S/I/R) (host strain YMC16/05/R2210) | antibiotic susceptibility S/I/R (host strain YMC16/07/R2512) | susceptibility category (S/I/R) (host strain YMC16/07/R2512) | antibiotic susceptibility S/I/R (host strain YMC16/09/R2471) | susceptibility category (S/I/R) (host strain YMC16/09/R2471) | antibiotic susceptibility S/I/R (host strain YMC16/10/R2537) | susceptibility category (S/I/R) (host strain YMC16/10/R2537) | antibiotic susceptibility S/I/R (host strain YMC16/12/B11422) | susceptibility category (S/I/R) (host strain YMC16/12/B11422) | antibiotic susceptibility S/I/R (host strain YMC16/12/B11449) | susceptibility category (S/I/R) (host strain YMC16/12/B11449) | antibiotic susceptibility S/I/R (host strain YMC16/12/B13325) | susceptibility category (S/I/R) (host strain YMC16/12/B13325) | antibiotic susceptibility S/I/R (host strain YMC16/12/P503) | susceptibility category (S/I/R) (host strain YMC16/12/P503) | antibiotic susceptibility S/I/R (host strain YMC16/12/R4637) | susceptibility category (S/I/R) (host strain YMC16/12/R4637) | antibiotic susceptibility S/I/R (host strain YMC17/01/B8053) | susceptibility category (S/I/R) (host strain YMC17/01/B8053) | antibiotic susceptibility S/I/R (host strain YMC17/01/B10087) | susceptibility category (S/I/R) (host strain YMC17/01/B10087) | antibiotic susceptibility S/I/R (host strain YMC17/01/B12075) | susceptibility category (S/I/R) (host strain YMC17/01/B12075) | antibiotic susceptibility S/I/R (host strain YMC17/01/B13454) | susceptibility category (S/I/R) (host strain YMC17/01/B13454) | antibiotic susceptibility S/I/R (host strain YMC17/01/P518) | susceptibility category (S/I/R) (host strain YMC17/01/P518) | antibiotic susceptibility S/I/R (host strain YMC17/01/R2812) | susceptibility category (S/I/R) (host strain YMC17/01/R2812) | antibiotic susceptibility S/I/R (host strain YMC17/02/B14) | susceptibility category (S/I/R) (host strain YMC17/02/B14) | antibiotic susceptibility S/I/R (host strain YMC17/02/B87) | susceptibility category (S/I/R) (host strain YMC17/02/B87) | antibiotic susceptibility S/I/R (host strain YMC17/02/B721) | susceptibility category (S/I/R) (host strain YMC17/02/B721) | antibiotic susceptibility S/I/R (host strain YMC17/02/B4039) | susceptibility category (S/I/R) (host strain YMC17/02/B4039) | antibiotic susceptibility S/I/R (host strain YMC17/02/B4520) | susceptibility category (S/I/R) (host strain YMC17/02/B4520) | antibiotic susceptibility S/I/R (host strain YMC17/02/B8414) | susceptibility category (S/I/R) (host strain YMC17/02/B8414) | antibiotic susceptibility S/I/R (host strain YMC17/02/P523) | susceptibility category (S/I/R) (host strain YMC17/02/P523) | antibiotic susceptibility S/I/R (host strain YMC17/02/R541) | susceptibility category (S/I/R) (host strain YMC17/02/R541) | antibiotic susceptibility S/I/R (host strain YMC17/02/R2392) | susceptibility category (S/I/R) (host strain YMC17/02/R2392) | antibiotic susceptibility S/I/R (host strain YMC17/03/B4730) | susceptibility category (S/I/R) (host strain YMC17/03/B4730) | antibiotic susceptibility S/I/R (host strain YMC17/03/B5000) | susceptibility category (S/I/R) (host strain YMC17/03/B5000) | antibiotic susceptibility S/I/R (host strain YMC17/03/P971) | susceptibility category (S/I/R) (host strain YMC17/03/P971) | antibiotic susceptibility S/I/R (host strain YMC17/03/R348) | susceptibility category (S/I/R) (host strain YMC17/03/R348) | antibiotic susceptibility S/I/R (host strain YMC17/03/R585) | susceptibility category (S/I/R) (host strain YMC17/03/R585) | antibiotic susceptibility S/I/R (host strain YMC17/03/R1888) | susceptibility category (S/I/R) (host strain YMC17/03/R1888) | antibiotic susceptibility S/I/R (host strain YMC17/03/R3279) | susceptibility category (S/I/R) (host strain YMC17/03/R3279) | antibiotic susceptibility S/I/R (host strain YMC17/03/R4077) | susceptibility category (S/I/R) (host strain YMC17/03/R4077) | antibiotic susceptibility S/I/R (host strain YMC17/03/R4607) | susceptibility category (S/I/R) (host strain YMC17/03/R4607) | antibiotic susceptibility S/I/R (host strain YMC17/04/R488) | susceptibility category (S/I/R) (host strain YMC17/04/R488) | antibiotic susceptibility S/I/R (host strain YMC17/04/R640) | susceptibility category (S/I/R) (host strain YMC17/04/R640) | antibiotic susceptibility S/I/R (host strain YMC/17/05/R1095) | susceptibility category (S/I/R) (host strain YMC/17/05/R1095)
I: antibiotic susceptibility class (host strain YMC14/01/R617)
S: antibiotic susceptibility S/I/R (host strain YMC17/02/B4864) | susceptibility category (S/I/R) (host strain YMC17/02/B4864)
